Molecular target: T1, Scytalone dehydratase (Magnaporthe oryzae (strain 70-15 / FGSC 8958) (Rice blast fungus)(Pyricularia oryzae), UniProt P56221)
T1 sequence (P56221 whole entry): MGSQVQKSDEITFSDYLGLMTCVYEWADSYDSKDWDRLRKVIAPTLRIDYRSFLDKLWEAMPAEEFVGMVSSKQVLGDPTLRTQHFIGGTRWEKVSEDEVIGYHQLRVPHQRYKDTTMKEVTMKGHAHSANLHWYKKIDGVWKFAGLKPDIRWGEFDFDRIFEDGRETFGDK

| Structure (SMILES) | Ki |
| --- | --- |
| C[C@@H](NC(=O)[C@]1(C(F)(F)F)C[C@@](C)(Cl)C1)c1ccc(Cl)cc1Cl | 11 pM |
| C[C@H](COc1cc(F)ccc1Cl)NC(=O)[C@]1(C)C[C@](C)(Cl)C1 | 57 pM |
| C[C@H](COc1ccccc1F)NC(=O)[C@]1(C(F)(F)F)C[C@@](C)(Cl)C1 | 350 pM |
| C[C@@H](NC(=O)C1CCC1)c1ccc(Br)cc1 | 520000 pM |
| C[C@@H](NC(=O)[C@H]1C[C@@](C)(Cl)C1)c1ccc(Br)cc1 | 44000 pM |
| C[C@@H](NC(=O)C1(Cl)CC(Cl)(Cl)C1)c1ccc(Br)cc1 | 450 pM |
| C[C@@H](NC(=O)C1(C)CC(F)(F)C1)c1ccc(Br)cc1 | 6000 pM |
| C[C@@H](NC(=O)[C@]1(C)C[C@](C)(Cl)C1)c1ccc(Br)cc1 | 100 pM |
| C[C@@H](NC(=O)[C@]1(C)C[C@](Cl)(CCl)C1)c1ccc(Br)cc1 | 27 pM |
| C[C@@H](NC(=O)[C@]1(C)C[C@@](Cl)(CCl)C1)c1ccc(Br)cc1 | 16 pM |
| CC[C@]1(C(=O)N[C@H](C)c2ccc(Br)cc2)C[C@@](C)(Cl)C1 | 21 pM |
| C[C@@H](NC(=O)[C@]1(C)C[C@](C)(O)C1)c1ccc(Br)cc1 | 480000 pM |
| C[C@@H](NC(=O)[C@]1(C)C[C@@](C)(O)C1)c1ccc(Br)cc1 | 16000 pM |
| C#C[C@]1(O)C[C@@](C)(C(=O)N[C@H](C)c2ccc(Br)cc2)C1 | 28000 pM |
| CC[C@]1(O)C[C@@](C)(C(=O)N[C@H](C)c2ccc(Br)cc2)C1 | 3200 pM |
| C[C@@H](NC(=O)[C@]1(C)C[C@](C)(Cl)C1)c1ccc(Cl)cc1Cl | 12 pM |
| C[C@@H](NC(=O)[C@]1(C)C[C@](C)(Cl)C1)c1cccc2ccccc12 | 3200 pM |
| C[C@@H](NC(=O)[C@]1(C)C[C@](C)(Cl)C1)c1ccc2ccccc2c1 | 16 pM |
| C[C@H](COc1cc(F)ccc1F)NC(=O)[C@]1(C)C[C@](C)(Cl)C1 | 420 pM |
| C[C@@H](NC(=O)[C@]1(C(F)(F)F)C[C@@](C)(Cl)C1)c1ccc(Br)cc1 | 430 pM |
| C[C@@H](NC(=O)[C@]1(C(F)(F)F)C[C@@](C)(Cl)C1)c1ccc(Cl)cc1 | 67 pM |
| CC(C)C(C)(C#N)NC(=O)[C@H](C)Oc1ccc(Cl)cc1Cl (stereo not given in full) | 130 pM |
| C[C@@H](NC(=O)C1(Cl)CC(C)(Cl)C1)c1ccc(Br)cc1 (mixture of isomers) | 310 pM |
| COc1cc(Br)ccc1C(C)NC(=O)[C@]1(C)C[C@](C)(Cl)C1 (mixture of isomers) | 30 pM |
| C[C@@H](NC(=O)C(C#N)C(C)(C)C)c1ccc(Cl)cc1Cl (stereo not given in full) [DICLOCYMET] | 36 pM |
